Reference: PubChem BioAssay (NCI)
Several values for one entry are separate records, joined by “and”; a condition that tells them apart may be missing. Equal values may be shown once.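 Following 48 hours of exposure in 96-well plates, responses at five concentrations were used to interpolate endpoints linearly. The concentration for 50% growth inhibition is given as GI50. TGI denotes the concentration required for complete inhibition of growth.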 Where a SMILES comes first, the peptide text is derived from it. [ ]: non-standard residue; d: D form. The star is where a group is joined. ξ: configuration not given here. ξPhe(4-NO2) = NC(Cc1ccc([N+](=O)[O-])cc1)C(=O)O; Boc = CC(C)(C)OC(=O)*; OBn = c1ccc(CO*)cc1

Key:
Assay in all cases: DTP human tumour cell line panel, 48 h
KM12 colon = tested on: KM12 colon
SK-OV-3 ovarian = tested on: SK-OV-3 ovarian
U251 CNS = tested on: U251 CNS
SF-268 CNS = tested on: SF-268 CNS
SK-MEL-5 melanoma = tested on: SK-MEL-5 melanoma
NCI-H23 lung = tested on: NCI-H23 lung
UACC-257 melanoma = tested on: UACC-257 melanoma
ACHN renal = tested on: ACHN renal
NCI/ADR-RES ovarian = tested on: NCI/ADR-RES ovarian
SR leukemia = tested on: SR leukemia
SNB-75 CNS = tested on: SNB-75 CNS
NCI-H522 lung = tested on: NCI-H522 lung

SMILES | TGI (KM12 colon) | TGI (SK-OV-3 ovarian) | TGI (U251 CNS) | TGI (SF-268 CNS) | TGI (SK-MEL-5 melanoma) | TGI (NCI-H23 lung) | TGI (UACC-257 melanoma) | TGI (ACHN renal) | TGI (NCI/ADR-RES ovarian) | TGI (SR leukemia) | TGI (SNB-75 CNS) | TGI (NCI-H522 lung) | GI50 (SK-OV-3 ovarian) | GI50 (SF-268 CNS) | GI50 (SK-MEL-5 melanoma) | GI50 (UACC-257 melanoma) | GI50 (ACHN renal) | GI50 (NCI/ADR-RES ovarian) | GI50 (SR leukemia) | GI50 (SNB-75 CNS)
C[C@H]1C(OCCOC2O[C@@H]3O[C@@]4(C)CC[C@H]5[C@H](C)CCC([C@H]2C)[C@@]35O4)O[C@@H]2O[C@@]3(C)CC[C@H]4[C@H](C)CCC1[C@@]24O3 (some centres not stated) | > 100 µM | > 100 µM | > 100 µM | > 100 µM | 32.2 µM | > 100 µM | > 100 µM | > 100 µM | > 100 µM | > 100 µM | 81.7 µM |  |  |  |  |  |  |  |  | 
CC1(C)C=[N+]([O-])C(C)(C)N1 | > 100 µM | > 100 µM | > 100 µM | > 100 µM | > 100 µM | > 100 µM | > 100 µM | > 100 µM | > 100 µM | > 100 µM | > 100 µM |  |  |  |  |  |  |  |  | 
CN(C)c1ncnc2c1ncn2C1C=CC(COS(N)(=O)=O)C1 (configuration not stated) | > 100 µM | > 100 µM | > 100 µM | > 100 µM | > 100 µM | > 100 µM | > 100 µM | > 100 µM | > 100 µM | > 100 µM | > 100 µM | > 100 µM |  |  |  |  |  |  |  | 
NC(C(F)(F)F)(C(F)(F)F)P(=O)(c1ccccc1)c1ccccc1 | > 100 µM | > 100 µM | > 100 µM | > 100 µM | > 100 µM | > 100 µM | > 100 µM | > 100 µM | > 100 µM | > 100 µM | > 100 µM |  |  |  |  |  |  |  |  | 
Cn1cc2c(=O)n3ncn(-c4ccc(Br)cc4)c3nc2n1 | > 100 µM | > 100 µM | > 100 µM | > 100 µM | > 100 µM | > 100 µM | > 100 µM | > 100 µM | > 100 µM | > 100 µM | > 100 µM | > 100 µM |  |  |  |  |  |  |  | 
CCOC(=O)c1cc(C2CCN(CC(C)CC)C2=S)c(C(=O)/C=C(/C)N)[nH]1 (configuration not stated) | > 50 µM | > 50 µM | > 50 µM | > 50 µM | > 50 µM | > 50 µM | > 50 µM | > 50 µM | > 50 µM | > 50 µM | > 50 µM |  |  |  |  |  |  |  |  | 
CC1(C)CCCCCCCCCC(C)(CCCO)C1=O (configuration not stated) | 33 µM | 31.4 µM | 30.4 µM | 33.4 µM | 31.3 µM | 29.1 µM | 31.8 µM | 31.7 µM | 30.5 µM | > 100 µM | 31.9 µM | 29.7 µM |  |  |  |  |  |  |  | 
COC(=O)C(/C(=N/N)C(=O)Nc1cc(Cl)c(Cl)cc1Cl)c1nc2ccc(Cl)cc2[nH]c1=O (configuration not stated) | > 100 µM | > 100 µM | > 100 µM | > 100 µM | > 100 µM | > 100 µM | > 100 µM | > 100 µM | > 100 µM | > 100 µM | > 100 µM | > 100 µM |  |  |  |  |  |  |  | 
COC(=O)/C(C#N)=C1\NC(=O)CC(c2ccccc2)C1C#N (configuration not stated) | > 100 µM | > 100 µM |  | > 100 µM | > 100 µM |  | > 100 µM | > 100 µM | > 100 µM | > 100 µM | > 100 µM | > 100 µM |  |  |  |  |  |  |  | 
Cc1ccc(S(=O)(=O)[N-]C2C(=O)c3ccccc3C(=O)C2[n+]2cccc(C(N)=O)c2)cc1 (configuration not stated) | > 100 µM | > 100 µM | > 100 µM | > 100 µM | > 100 µM | > 100 µM | > 100 µM | > 100 µM | > 100 µM | > 100 µM | > 100 µM | > 100 µM |  |  |  |  |  |  |  | 
COc1cc(/C=C2/SC(c3ccccc3)N(c3ccc(Cl)cc3)C2=O)cc(OC)c1OC (configuration not stated) | > 100 µM | > 100 µM | > 100 µM | > 100 µM |  | > 100 µM | > 100 µM | > 100 µM | > 100 µM | > 100 µM | > 100 µM | > 100 µM |  |  |  |  |  |  |  | 
CC(=N/NC(=S)Nc1c(C)n(C)n(-c2ccccc2)c1=O)/C(C)=N\NC(=S)Nc1c(C)n(C)n(-c2ccccc2)c1=O | > 100 µM | > 100 µM | > 100 µM | > 100 µM | > 100 µM | > 100 µM | > 100 µM | > 100 µM | > 100 µM | > 100 µM | > 100 µM | > 100 µM |  |  |  |  |  |  |  | 
CC1(C)[C@@H]2C[C@H]1C(Cc1ccc(C[C@H]3c4cc(-c5ccccn5)ncc4[C@H]4C[C@@H]3C4(C)C)cc1)c1cc(-c3ccccn3)ncc12 (some centres not stated) | 38.4 µM | > 100 µM | 19.7 µM | 28.6 µM | 7.81 µM | 37 µM | > 100 µM | > 100 µM | 22.2 µM | 5.02 µM | > 100 µM | > 100 µM |  |  |  |  |  |  |  | 
CC(NC(=O)/C(C#N)=C/c1ccc2[nH]ccc2c1)c1ccccc1 (configuration not stated) | 32.2 µM | 40.4 µM | 29.4 µM | 42.6 µM | 33 µM | 43.3 µM | 38.7 µM | > 64.9 µM | > 100 µM | 83.7 µM | 60.5 µM | 25.7 µM |  |  |  |  |  |  |  | 
CS(=O)(=O)c1[nH]nc2[nH]c(=O)[nH]c(=O)c12 | > 10 µM | > 10 µM | > 10 µM | > 10 µM | > 10 µM | > 10 µM | > 10 µM | > 10 µM | > 10 µM | > 10 µM | > 10 µM | > 10 µM |  |  |  |  |  |  |  | 
O=c1n(-c2ccccc2)c(=O)n2n1C1CCC2CC1 | > 100 µM | > 100 µM | > 100 µM | > 100 µM | > 100 µM | > 100 µM | > 100 µM | > 100 µM | > 100 µM | > 100 µM | > 100 µM |  |  |  |  |  |  |  |  | 
CC(=O)NCC1(c2ccccc2)CCN(CC2COc3ccccc3O2)CC1 (configuration not stated) | > 100 µM | > 100 µM | > 100 µM | > 100 µM | > 100 µM | > 100 µM | > 100 µM | > 100 µM | > 100 µM | > 100 µM | > 100 µM | > 100 µM |  |  |  |  |  |  |  | 
COC(C/C(=C/CO[Si](C(C)C)(C(C)C)C(C)C)C(=O)Nc1ccccc1I)OC | > 100 µM | > 100 µM | > 100 µM | > 100 µM | > 100 µM | > 100 µM | > 100 µM | > 100 µM | > 100 µM | > 100 µM | > 100 µM | 6.05 µM |  |  |  |  |  |  |  | 
Cn1c2ccccc2c(=O)c2c(O)cc3c(c21)C=CC1(CCCC1)O3 | > 100 µM | > 100 µM | > 100 µM | > 100 µM | > 100 µM | > 100 µM | > 100 µM | > 100 µM | > 100 µM | > 100 µM | > 100 µM | > 100 µM |  |  |  |  |  |  |  | 
CC1=NN2C(=O)CC(=O)N=C2S1 | > 100 µM | > 100 µM | > 100 µM | > 100 µM | > 100 µM | > 100 µM | > 100 µM | > 100 µM | > 100 µM | > 100 µM | > 100 µM | > 100 µM |  |  |  |  |  |  |  | 
CN(C)CCOC1(Cc2ccc(Cl)cc2Cl)CCC(C(C)(C)C)CC1 (configuration not stated) | 3.27 µM and 3.36 µM | 4.22 µM and 11 µM | 2.9 µM and 3.45 µM | 7.89 µM and 6.85 µM | 3.07 µM and 3.61 µM | 5.74 µM and 4.15 µM | 3.75 µM and 3.24 µM | 5.28 µM and 4.05 µM | 4.52 µM and 3.12 µM | 4.64 µM and 1.47 µM | 3.89 µM and 7.39 µM | 3.44 µM and 3.85 µM | 4.79 µM | 2280 nM | 2050 nM | 1640 nM | 1990 nM | 1990 nM | 1870 nM | 2520 nM
CC(C)(C)OC(=O)NC(Cc1ccc([N+](=O)[O-])cc1)C(=O)NCC(=O)OCc1ccccc1 (configuration not stated) (Boc-[ξPhe(4-NO2)]-Gly-OBn) | 59 µM | 64.8 µM | 40.6 µM | 38.6 µM | 46.2 µM | 47.5 µM |  | 48.4 µM | > 100 µM | > 100 µM | 41.5 µM | 53 µM |  |  |  |  |  |  |  | 
CC(=O)OCC1OC(n2c3c(c(-c4ccc(Cl)cc4)c(C#N)c2=S)C(=O)CC(C)(C)C3)C(OC(C)=O)C(OC(C)=O)C1OC(C)=O (configuration not stated) | > 77.4 µM |  | 50.3 µM | 29 µM | 48.2 µM | > 100 µM | 42.8 µM | > 100 µM | > 67.8 µM | > 100 µM | 44.3 µM | > 58.1 µM |  |  |  |  |  |  |  | 
COc1cccc(-c2cccc(SC)n2)n1 | > 100 µM | > 100 µM | > 100 µM |  | 44 µM | > 100 µM | 98.9 µM | > 100 µM | > 100 µM | 55.5 µM | > 100 µM |  |  |  |  |  |  |  |  | 
C[C@]12CC(c3ccccc3O1)C(C#N)C(=O)N2 (some centres not stated) | > 100 µM | > 100 µM | > 100 µM | > 100 µM | > 100 µM | > 100 µM | > 100 µM | > 100 µM | > 100 µM | > 100 µM | > 100 µM |  |  |  |  |  |  |  |  | 
COC1C=C(NCC2(CO)CCC2)NC(N)=N1 (configuration not stated) | > 100 µM | > 100 µM | > 100 µM | > 100 µM | > 100 µM | > 100 µM | > 100 µM |  | > 100 µM | > 100 µM | > 100 µM | > 100 µM |  |  |  |  |  |  |  | 
Nc1nc(N)nc(-c2cnccn2)n1 | > 100 µM | > 100 µM | > 100 µM | > 100 µM |  | > 100 µM | > 100 µM | > 100 µM | > 100 µM | > 100 µM | > 100 µM | > 100 µM |  |  |  |  |  |  |  | 
